The source of these data is patent publication US10590106B2, “Certain chemical entities, compositions, and methods” (NeuPharma, Inc., priority 2012, dated 2020).

One experiment deals with BRAF V600E (Homo sapiens (Human), UniProt P15056, V600E). Kind of experiment: Inhibitory activity against kinase BRAF V600E, Z'-LYTE method (Invitrogen). The class given is biochemical. To be noted: 1 μM compound; read-out: Inhibition (% inhibition at 1 μM) against BRAF V600E. In a few lines: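 FRET-based Z′-LYTE peptide-phosphorylation assay in 50 mM HEPES pH 7.5, 0.01% BRIJ-35, 10 mM MgCl2, 1 mM EGTA; kinase reaction 60 min at room temperature, then 60 min development before fluorescence read. IC50 from concentration vs % inhibition; single-point % inhibition tested at 1 μM.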
Sequence of BRAF V600E (P15056 whole entry V600E): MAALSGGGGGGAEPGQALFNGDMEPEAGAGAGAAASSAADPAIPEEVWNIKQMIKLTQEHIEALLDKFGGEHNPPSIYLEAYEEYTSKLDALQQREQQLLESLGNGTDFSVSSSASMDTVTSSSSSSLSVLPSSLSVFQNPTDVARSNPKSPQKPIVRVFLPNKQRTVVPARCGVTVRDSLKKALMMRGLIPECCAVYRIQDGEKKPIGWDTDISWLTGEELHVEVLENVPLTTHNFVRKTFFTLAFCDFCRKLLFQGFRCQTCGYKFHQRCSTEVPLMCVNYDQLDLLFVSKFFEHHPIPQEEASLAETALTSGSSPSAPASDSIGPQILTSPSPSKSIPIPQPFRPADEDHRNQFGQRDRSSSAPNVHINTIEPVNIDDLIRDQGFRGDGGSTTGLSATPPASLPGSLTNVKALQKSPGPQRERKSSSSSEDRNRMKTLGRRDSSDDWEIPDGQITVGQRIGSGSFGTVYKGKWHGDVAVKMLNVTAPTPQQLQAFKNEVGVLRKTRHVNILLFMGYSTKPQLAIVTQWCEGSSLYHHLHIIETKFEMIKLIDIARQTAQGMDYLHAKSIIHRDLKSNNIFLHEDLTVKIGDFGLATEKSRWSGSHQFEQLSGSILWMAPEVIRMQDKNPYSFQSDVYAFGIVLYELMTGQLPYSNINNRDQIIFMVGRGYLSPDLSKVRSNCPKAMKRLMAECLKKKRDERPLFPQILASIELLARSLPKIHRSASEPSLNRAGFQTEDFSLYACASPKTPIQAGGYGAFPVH

A further experiment concerns A375 cells. Kind of experiment: Inhibition of cancer cell growth, MTT or MTS assay, A375. The class given is cell-based. The conditions noted are these: Homo sapiens, A-375; 72 h incubation. The gist of the method:
(§1)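 Cells in RPMI 1640 with 10% FBS were seeded at ~2000 (A375) or 4000 (A549, Colo205) per well, grown 24 h, then exposed to compound 72 h at 1% final DMSO. Read-out by MTT (570 nm) or MTS (490 nm). IC50 from concentration vs percent inhibition, triplicates.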
For orientation: Tetrazolium assays rely on reduction of a dye to a coloured formazan, in cell work by metabolically active cells.

A further experiment has as its target KDR (VEGFR2) (Homo sapiens (Human), UniProt P35968). Nature of the experiment: Inhibitory activity against kinase KDR, Z'-LYTE method (Invitrogen). The format is biochemical. To be noted: 1 μM compound; read-out: Inhibition (% inhibition at 1 μM) against KDR. In a few lines: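 Human KDR (VEGFR2) kinase inhibition was measured with Invitrogen's Z′-LYTE® method. A 2× mixture of KDR and Tyr 01 peptide is made in 50 mM HEPES pH 7.5, 0.01% BRIJ-35, 10 mM MgCl2, 1 mM EGTA. Each 10 μL reaction holds 0.5-11.7 ng enzyme and 2 μM Tyr 01. It incubates for 1 hour, then 5 μL of Development Reagent B diluted 1:256 is added.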

A further experiment has as its target BRAF (Homo sapiens (Human), UniProt P15056). Nature of the experiment: Inhibitory activity against kinase BRAF, Z'-LYTE method (Invitrogen). The class given is biochemical. The conditions noted are these: 1 μM compound. As to the method:
Inhibitory activities Inhibitory activities of compounds against BRAF, and BRAF V600E were measured by Invitrogen using Z′-LYTE® Method as briefly described in the following. 4× Test compounds are dissolved in 1% DMSO. […] ATP solutions are diluted to a 4×ATP working concentration in Kinase Buffer (50 mM HEPES pH 7.5, 0.01% BRIJ-35, 10 mM MgCl2, 1 mM EGTA). Reaction started by 30-second shaking of mixture consisting of 2.5 μL 4× test compound, […] and 2.5 μL 4×ATP Solution on Bar-coded Corning, low volume NBS, black 384-well plate (Corning Cat. #3676). Then the mixture was incubated for 60-minute at room temperature for the kinase reaction, followed by addition of 5 μL of a 1:1024 dilution of development reagent A and 30-second plate shake. The mixture was then incubated for another 60-minute at room temperature for development reaction. Fluorescence was read by plate reader. IC50 was calculated by plotting the concentration of compound vs the percentage of inhibition in treated wells using GraphPad Prism 5.
Table 2 and 3 show % inhibition at 1 μM of several compounds of the invention against BRAF and BRAF V600E, respectively, using Z′-LYTE® method.

A further experiment deals with A549 cells. Kind of experiment: Inhibition of cancer cell growth, MTT or MTS assay, A549. The class given is cell-based. To be noted: Homo sapiens, 72 h incubation. The gist of the method: as §1

Sequence of KDR (VEGFR2) (P35968 20-1356): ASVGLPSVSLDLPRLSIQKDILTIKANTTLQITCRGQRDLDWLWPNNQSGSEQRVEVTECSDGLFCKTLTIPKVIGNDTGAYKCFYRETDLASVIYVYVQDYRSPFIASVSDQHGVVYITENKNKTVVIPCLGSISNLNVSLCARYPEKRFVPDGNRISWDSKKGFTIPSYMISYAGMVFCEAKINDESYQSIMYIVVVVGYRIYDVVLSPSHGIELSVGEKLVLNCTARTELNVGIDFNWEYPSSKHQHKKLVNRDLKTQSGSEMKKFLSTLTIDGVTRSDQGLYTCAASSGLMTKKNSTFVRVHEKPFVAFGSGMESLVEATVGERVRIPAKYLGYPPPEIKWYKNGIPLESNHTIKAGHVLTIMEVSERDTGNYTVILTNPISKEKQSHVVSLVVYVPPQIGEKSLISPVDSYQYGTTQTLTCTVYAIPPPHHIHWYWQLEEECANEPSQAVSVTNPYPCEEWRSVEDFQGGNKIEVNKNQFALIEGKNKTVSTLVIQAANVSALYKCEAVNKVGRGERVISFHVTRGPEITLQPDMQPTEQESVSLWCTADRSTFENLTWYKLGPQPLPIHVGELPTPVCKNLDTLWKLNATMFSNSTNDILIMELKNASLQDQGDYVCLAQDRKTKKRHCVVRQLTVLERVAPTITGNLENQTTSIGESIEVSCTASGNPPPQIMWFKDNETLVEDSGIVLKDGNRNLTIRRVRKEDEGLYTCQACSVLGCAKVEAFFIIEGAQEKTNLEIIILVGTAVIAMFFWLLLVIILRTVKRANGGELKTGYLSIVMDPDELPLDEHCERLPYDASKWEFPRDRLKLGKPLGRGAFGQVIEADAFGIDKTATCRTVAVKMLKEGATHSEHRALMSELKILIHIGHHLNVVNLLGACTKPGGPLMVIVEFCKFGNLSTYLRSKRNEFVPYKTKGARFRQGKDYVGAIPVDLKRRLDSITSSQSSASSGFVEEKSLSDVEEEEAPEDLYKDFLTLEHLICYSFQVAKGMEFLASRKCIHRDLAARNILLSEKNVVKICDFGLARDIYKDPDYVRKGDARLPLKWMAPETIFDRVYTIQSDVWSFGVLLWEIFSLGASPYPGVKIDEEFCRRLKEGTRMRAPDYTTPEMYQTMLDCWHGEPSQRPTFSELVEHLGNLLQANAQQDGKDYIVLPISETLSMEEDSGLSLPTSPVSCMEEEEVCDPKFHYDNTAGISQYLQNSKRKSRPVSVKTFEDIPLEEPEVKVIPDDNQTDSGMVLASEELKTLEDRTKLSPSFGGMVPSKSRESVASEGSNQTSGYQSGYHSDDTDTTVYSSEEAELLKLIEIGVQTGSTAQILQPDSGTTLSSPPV
Sequence of BRAF (P15056 whole entry): as the sequence (P15056 whole entry V600E) above, with E600V counted along it

As usually defined, the inhibition is the share of the control response that was lost under treatment. What is called IC50 is the concentration at which inhibition is half-maximal. For `O=C(Nc1cccc(F)c1)Nc1cccc(Oc2ccc3nccnc3c2)c1` [Compound C002, 1-(3-fluorophenyl)-3-(3-(quinoxalin-6-yloxy)phenyl)urea], the inhibition at 1 µM on BRAF V600E, on KDR (VEGFR2) and on BRAF was 70 to 89% in each case. In the experiment with A375 cells, this compound gave an IC50 of over 5 µM.

Take `O=C(Nc1cccc(Oc2ccc3ncc(N4CCNCC4)nc3c2)c1)Nc1cccc(C(F)(F)F)c1` [Compound C040, 1-(3-((3-(piperazin-1-yl)quinoxalin-6-yl)oxy)phenyl)-3-(3-(trifluoromethyl)phenyl)urea]: the inhibition at 1 µM at BRAF V600E, on KDR (VEGFR2) and against BRAF was over 89% each time. In addition, in the experiment with A549 cells, the IC50 was 2 to 5 µM.

Take `O=C(Nc1ccc(Cl)c(F)c1)Nc1ccc(F)c(Oc2ccc3ncc(N4CCNCC4)nc3c2)c1` [Compound C068, 1-(4-chloro-3-fluorophenyl)-3-(4-fluoro-3-((3-(piperazin-1-yl)quinoxalin-6-yl)oxy)phenyl)urea]: the inhibition at 1 µM at BRAF V600E was over 89%; at KDR (VEGFR2) it was 70 to 89%; against BRAF, over 89%. In addition, the IC50 in the experiment with A549 cells is under 2 µM.

`O=C(Nc1ccc(F)cc1)Nc1ccc(F)c(Oc2ccc3ncc(N4CCNCC4)nc3c2)c1` [Compound C060, 1-(4-fluoro-3-((3-(piperazin-1-yl)quinoxalin-6-yl)oxy)phenyl)-3-(4-fluorophenyl)urea]: the inhibition at 1 µM at BRAF V600E, on KDR (VEGFR2) and at BRAF was over 89% each time. The compound also yielded an IC50 with A549 cells of 2 to 5 µM.

On to `O=C(Nc1cccc(Oc2ccc3ncc(N4CCOCC4)nc3c2)c1)Nc1ccc(Cl)c(C(F)(F)F)c1` [Compound C049, 1-(4-chloro-3-(trifluoromethyl)phenyl)-3-(3-((3-morpholinoquinoxalin-6-yl)oxy)phenyl)urea], for which the inhibition at 1 µM at BRAF V600E was 70 to 89%; on KDR (VEGFR2), over 89%; at BRAF, 70 to 89%. Further, the IC50 with A549 cells fell in the range of 2 to 5 µM.

Consider `O=C(Nc1cccc(Cl)c1)Nc1ccc(F)c(Oc2ccc3ncc(N4CCNCC4)nc3c2)c1` [Compound C063, 1-(3-chlorophenyl)-3-(4-fluoro-3-((3-(piperazin-1-yl)quinoxalin-6-yl)oxy)phenyl)urea], for which the inhibition at 1 µM at BRAF V600E, at KDR (VEGFR2) and on BRAF was over 89% in each case. Moreover, in the experiment with A549 cells, the IC50 was in the range of 2 to 5 µM.

As to `O=C(Nc1cccc(Cl)c1)Nc1cccc(Oc2ccc3ncc(N4CCNCC4)nc3c2)c1` [Compound C050, 1-(3-chlorophenyl)-3-(3-((3-(piperazin-1-yl)quinoxalin-6-yl)oxy)phenyl)urea], the inhibition at 1 µM at BRAF V600E, on KDR (VEGFR2) and at BRAF was over 89% throughout. For the same compound, in the experiment with A549 cells, the IC50 lay in the range of 2 to 5 µM.

With `O=C(Nc1cc(F)cc(F)c1)Nc1ccc(F)c(Oc2ccc3ncc(N4CCNCC4)nc3c2)c1` [Compound C062, 1-(3,5-difluorophenyl)-3-(4-fluoro-3-((3-(piperazin-1-yl)quinoxalin-6-yl)oxy)phenyl)urea], the figures for the inhibition at 1 µM on BRAF V600E, on KDR (VEGFR2) and on BRAF were over 89%, 70 to 89% and over 89%, respectively. Besides, in the experiment with A549 cells, the IC50 is 2 to 5 µM.

Take `O=C(Nc1ccc(F)c(F)c1)Nc1ccc(F)c(Oc2ccc3ncc(N4CCNCC4)nc3c2)c1` [Compound C061, 1-(3,4-difluorophenyl)-3-(4-fluoro-3-((3-(piperazin-1-yl)quinoxalin-6-yl)oxy)phenyl)urea]: the inhibition at 1 µM was over 89% on BRAF V600E, 70 to 89% on KDR (VEGFR2) and over 89% against BRAF. The same compound gave an IC50 in the experiment on A549 cells of over 5 µM.

As to `O=C(Nc1ccc(Cl)cc1)Nc1ccc(Oc2ccc3nccnc3c2)cc1F` [Compound C096, 1-(4-chlorophenyl)-3-(2-fluoro-4-(quinoxalin-6-yloxy)phenyl)urea], the inhibition at 1 µM is over 89% on BRAF V600E and under 70% at BRAF. This compound gave an IC50 in the experiment with A375 cells of over 5 µM.

Take `O=C(Nc1cccc(F)c1)Nc1ccc(F)c(Oc2ccc3ncc(N4CCNCC4)nc3c2)c1` [Compound C059, 1-(4-fluoro-3-((3-(piperazin-1-yl)quinoxalin-6-yl)oxy)phenyl)-3-(3-fluorophenyl)urea]: the inhibition at 1 µM is over 89% at BRAF V600E, 70 to 89% on KDR (VEGFR2) and over 89% at BRAF. Also, the IC50 in the experiment on A549 cells is 2 to 5 µM.

Consider `O=C(Nc1ccc(F)c(Cl)c1)Nc1ccc(F)c(Oc2ccc3ncc(N4CCNCC4)nc3c2)c1` [Compound C067, 1-(3-chloro-4-fluorophenyl)-3-(4-fluoro-3-((3-(piperazin-1-yl)quinoxalin-6-yl)oxy)phenyl)urea], for which the inhibition at 1 µM at BRAF V600E, at KDR (VEGFR2) and against BRAF was over 89% in each case. Moreover, in the experiment with A549 cells, the IC50 was under 2 µM.

For the compound `O=C(Nc1ccc(Cl)cc1)Nc1cccc(Oc2ccc3ncc(N4CCNCC4)nc3c2)c1` [Compound C051, 1-(4-chlorophenyl)-3-(3-((3-(piperazin-1-yl)quinoxalin-6-yl)oxy)phenyl)urea], the inhibition at 1 µM on BRAF V600E, at KDR (VEGFR2) and against BRAF was over 89% throughout. Besides, the IC50 in the experiment with A549 cells is 2 to 5 µM.

`O=C(Nc1ccc(Cl)cc1)Nc1ccc(F)c(Oc2ccc3ncc(N4CCNCC4)nc3c2)c1` [Compound C064, 1-(4-chlorophenyl)-3-(4-fluoro-3-((3-(piperazin-1-yl)quinoxalin-6-yl)oxy)phenyl)urea]: the inhibition at 1 µM at BRAF V600E, on KDR (VEGFR2) and on BRAF was over 89% throughout. This compound returned an IC50 in the experiment on A549 cells of 2 to 5 µM.

Take `O=C(Nc1ccc(Oc2ccc3ncc(N4CCOCC4)nc3c2)cc1)Nc1cccc(Cl)c1` [Compound C081, 1-(3-chlorophenyl)-3-(4-((3-morpholinoquinoxalin-6-yl)oxy)phenyl)urea]: the results for the inhibition at 1 µM on BRAF V600E, at KDR (VEGFR2) and on BRAF were over 89%, over 89% and under 70%, respectively. Moreover, the IC50 in the experiment on A549 cells is over 5 µM.

Consider `O=C(Nc1ccc(F)cc1)Nc1ccc(Oc2ccc3nccnc3c2)cc1F` [Compound C094, 1-(2-fluoro-4-(quinoxalin-6-yloxy)phenyl)-3-(4-fluorophenyl)urea], for which the inhibition at 1 µM at BRAF V600E was over 89%; against BRAF, 70 to 89%. The IC50 in the experiment with A375 cells was over 5 µM.

For `O=C(Nc1ccc(F)cc1)Nc1cccc(Oc2ccc3ncc(N4CCOCC4)nc3c2)c1` [Compound C043, 1-(4-fluorophenyl)-3-(3-((3-morpholinoquinoxalin-6-yl)oxy)phenyl)urea], the inhibition at 1 µM at BRAF V600E was over 89%; at KDR (VEGFR2), over 89%; on BRAF, 70 to 89%. Besides, the IC50 in the experiment on A549 cells was over 5 µM.

Regarding `O=C(Nc1ccc(F)cc1)Nc1cccc(Oc2ccc3ncc(N4CCNCC4)nc3c2)c1` [Compound C038, 1-(4-fluorophenyl)-3-(3-((3-(piperazin-1-yl)quinoxalin-6-yl)oxy)phenyl)urea], the inhibition at 1 µM on BRAF V600E, on KDR (VEGFR2) and at BRAF was over 89% each time. Further, the IC50 with A549 cells was over 5 µM.

As to `O=C(Nc1cccc(Oc2ccc3ncc(N4CCOCC4)nc3c2)c1)Nc1ccc(F)c(F)c1` [Compound C044, 1-(3,4-difluorophenyl)-3-(3-((3-morpholinoquinoxalin-6-yl)oxy)phenyl)urea], the results for the inhibition at 1 µM on BRAF V600E, on KDR (VEGFR2) and against BRAF were over 89%, 70 to 89% and 70 to 89%, respectively. The compound further returned an IC50 in the experiment with A549 cells of over 5 µM.

`O=C(Nc1cccc(C(F)(F)F)c1)Nc1ccc(F)c(Oc2ccc3ncc(N4CCNCC4)nc3c2)c1` [Compound C065, 1-(4-fluoro-3-((3-(piperazin-1-yl)quinoxalin-6-yl)oxy)phenyl)-3-(3-(trifluoromethyl)phenyl)urea]: the inhibition at 1 µM on BRAF V600E, on KDR (VEGFR2) and against BRAF was over 89% in each case. In the experiment on A549 cells, this compound returned an IC50 of 2 to 5 µM.
